Test results: EP4813992A1, “POLYARYL DERIVATIVE AND USE THEREOF” (Hangzhou HealZen Therapeutics Co., Ltd., priority 2023, dated 2025)

Columns and labels:
HPK1 kinase [1] = target: T1, HPK1 kinase (Homo sapiens, UniProt Q92918); test: Lantha screen assay, inhibitory effect on HPK1 kinase; assay type: biochemical; settings: initial compound concentration 1 µM
Procedure: The Lantha screen assay is used to evaluate the inhibitory effect of the compounds on HPK1 kinase. • a) Kinase buffer: 50 mM HEPES (pH 7.5), 10 mM MgCl2, 4 mM DTT, 0.01% Tween-20, 0.01% BSA. • b) Compound Preparation: The compound is diluted with DMSO, and the initial detection concentration of the compound is 1 µM and is diluted to the corresponding concentration. • c) Kinase response and termination: A kinase solution is prepared by adding kinase buffer, the kinase solution and the compound are added to the test plate to be incubated at room temperature for 10 minutes. Fluorescein-PKC and ATP are added to the kinase buffer to form a substrate solution, and 5 µl of the substrate solution is added to the test plate to start the reaction to be incubated at room temperature for 90 minutes; then, 10 µl of a mixture of antibody and EDTA is added to terminate the reaction to be incubated at room temperature for 60 minutes. • d) The date is read by Envision instrument to plot a curve with the Log concentration of the inhibitor as the X-axis and the inhibition rate as the Y-axis, and then the formula Y=Bottom + (Top-Bottom)/(1+(IC50/X)^HillSlope) is used to obtain IC50. Table 1 Inhibitory activity the compounds of the invention on HPK1 kinase

HPK1 kinase [2] = target: T1, HPK1 kinase; test: Activity of degrading HPK1 in Jurkat cells (Western blot, 24 h); assay type: cell-based; design: endogenous in cells; host or cells: Jurkat; settings: HPK1 protein degradation, class symbols
Procedure: The adjusted samples are added to 5*loading buffer, boiled at 100°C for 10 minutes, and then the samples are loaded after the temperature is returned to room temperature. • 4) Detection of samples: Electrophoresis is performed using 10% SDS-PAGE with a sample loading volume of 8 µL/well. After the membrane transfer is completed, the samples are blocked with 5% BSA at room temperature for 1 h. After the residual blocking solution is washed away with TBST, HPK1 and GAPDH antibodies are added for incubation overnight at 4°C. Washing is performed 3 more times with TBST on a shaker, 10 minutes each time. After washing is completed, the secondary antibody is added for incubation at room temperature for 1 hour; then, washing is performed 3 more times with TBST on a shaker, 10 minutes each time; finally, ECL exposure solution is used to develop and image the bands to detect changes in HPK1 protein.

T1 sequence (Q92918 whole entry): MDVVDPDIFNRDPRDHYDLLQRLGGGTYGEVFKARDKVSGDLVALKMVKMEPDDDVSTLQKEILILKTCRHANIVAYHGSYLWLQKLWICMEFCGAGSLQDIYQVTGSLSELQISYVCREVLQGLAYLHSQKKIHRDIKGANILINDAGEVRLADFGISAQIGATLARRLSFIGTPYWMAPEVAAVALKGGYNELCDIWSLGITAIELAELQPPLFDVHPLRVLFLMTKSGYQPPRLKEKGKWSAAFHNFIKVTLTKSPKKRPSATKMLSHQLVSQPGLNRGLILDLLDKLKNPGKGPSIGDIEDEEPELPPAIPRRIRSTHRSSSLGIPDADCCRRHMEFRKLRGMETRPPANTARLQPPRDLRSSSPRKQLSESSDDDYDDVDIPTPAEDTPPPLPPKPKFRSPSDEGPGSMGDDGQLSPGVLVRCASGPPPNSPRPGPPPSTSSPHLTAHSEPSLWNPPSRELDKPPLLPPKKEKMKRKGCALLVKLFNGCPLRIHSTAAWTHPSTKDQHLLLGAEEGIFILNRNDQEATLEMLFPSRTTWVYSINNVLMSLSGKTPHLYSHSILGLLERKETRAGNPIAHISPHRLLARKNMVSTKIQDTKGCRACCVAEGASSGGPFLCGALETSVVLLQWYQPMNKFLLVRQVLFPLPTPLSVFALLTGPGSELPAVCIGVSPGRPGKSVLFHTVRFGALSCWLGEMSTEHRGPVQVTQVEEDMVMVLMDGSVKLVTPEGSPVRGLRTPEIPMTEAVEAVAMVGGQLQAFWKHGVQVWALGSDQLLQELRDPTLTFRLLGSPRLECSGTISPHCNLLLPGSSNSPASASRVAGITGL

Compound | IC50 (HPK1 kinase [1]) | DC50 (HPK1 kinase [2])
Cc1cc(-c2cnc3[nH]cc(-c4ccc(C(=O)N(C)C)cc4)c3c2)cc(C)c1C1=CCN(CC2CN(c3ccc(N4CCC(=O)NC4=O)c(Cl)c3)C2)CC1 [compound 142] | < 0.01 µM | < 0.01 µM
Cc1cc(-c2cnc3[nH]cc(-c4ccc(C(=O)N(C)C)cc4)c3n2)cc(C)c1C1=CCN(C2CC3(CCN(c4ccc(N5CCC(=O)NC5=O)c(F)c4)C3)C2)CC1 (centres unmarked) [compound 117] | < 0.01 µM | < 0.01 µM
Cc1cc(-c2cnc3[nH]cc(-n4cc(C#N)cn4)c3n2)cc(C)c1C1=CCN(CC2CN(c3ccc(N4CCC(=O)NC4=O)c(F)c3)C2)CC1 [compound 161] | < 0.01 µM | < 0.01 µM
Cc1cc(N2CC(CN3CC=C(c4c(C)cc(-c5cnc6[nH]cc(-c7ccc(C(=O)N(C)C)cc7)c6c5)cc4C)CC3)C2)ccc1N1CCC(=O)NC1=O [compound 013] | < 0.01 µM | < 0.01 µM
Cc1cc(N2CC(CN3CC=C(c4c(C)cc(-c5cnc6[nH]cc(-c7cnc8ccn(C)c8c7)c6c5)cc4C)CC3)C2)ccc1N1CCC(=O)NC1=O [compound 111] | < 0.01 µM | < 0.01 µM
Cc1cc(N2CC(CN3CC=C(c4c(C)cc(-c5cnc6[nH]cc(-c7cnc8c(c7)N(C)CCO8)c6n5)cc4C)CC3)C2)ccc1N1CCC(=O)NC1=O [compound 132] | < 0.01 µM | < 0.01 µM
Cc1cnn(-c2c[nH]c3ncc(-c4cc(C)c(C5=CCN(CC6CN(c7ccc(N8CCC(=O)NC8=O)c(F)c7)C6)CC5)c(C)c4)nc23)c1 [compound 158] | < 0.01 µM | < 0.01 µM
Cc1cc(N2CC(CN3CC=C(c4c(C)cc(-c5cnc6[nH]cc(-c7ccc(C(=O)N(C)C)cc7F)c6n5)cc4C)CC3)C2)ccc1N1CCC(=O)NC1=O [compound 140] | < 0.01 µM | < 0.01 µM
Cc1cc(-c2c[nH]c3ncc(-c4cc(C)c(C5=CCN(CC6CN(c7ccc(C(=O)NC8CCC(=O)NC8=O)cc7)C6)CC5)c(C)c4)nc23)ccc1C(=O)N(C)C (centres unmarked) [compound 028] | < 0.01 µM | < 0.01 µM
Cc1cc(-c2cnc3[nH]cc(-c4cnc5ccc(C#N)cn45)c3n2)cc(C)c1C1=CCN(CC2CN(c3ccc(N4CCC(=O)NC4=O)c(F)c3)C2)CC1 [compound 166] | < 0.01 µM | < 0.01 µM
Cc1cc(-c2cnc3[nH]cc(-c4csc(CO)c4)c3n2)cc(C)c1C1=CCN(CC2CN(c3ccc(N4CCC(=O)NC4=O)c(F)c3)C2)CC1 [compound 151] | < 0.01 µM | < 0.01 µM
Cc1cc(-c2cnc3[nH]cc(-c4ccc(C(=O)N(C)C)cc4)c3n2)cc(C)c1C1=CCN(CC2CN(c3cc(F)c(N4CCC(=O)NC4=O)c(F)c3)C2)CC1 [compound 141] |  | < 0.01 µM
Cc1cc(C(=O)N2CC(N3CC=C(c4c(C)cc(-c5cnc6[nH]cc(-c7ccc(C(=O)N(C)C)cc7)c6n5)cc4C)CC3)C2)ccc1C1CCC(=O)NC1=O (centres unmarked) [compound 010] | < 0.01 µM | 
Cc1cc(N2CC(CN3CC=C(c4ccc(-c5cnc6[nH]cc(-c7ccc(C(=O)N(C)C)cc7)c6n5)cc4F)CC3)C2)ccc1N1CCC(=O)NC1=O [compound 133] | < 0.01 µM | 
Cc1cc(C2CC(CN3CC=C(c4c(C)cc(-c5cnc6[nH]cc(-c7ccc(C(=O)N(C)C)cc7)c6n5)cc4C)CC3)C2)ccc1N1CCC(=O)NC1=O (centres unmarked) [compound 039] | < 0.01 µM | 
Cc1cc(-c2cnc3[nH]cc(-c4ccc(C(=O)N(C)C)cc4)c3n2)cc(C)c1C1=CCN(C2CN(c3ccc(C4CCC(=O)NC4=O)cc3)C2)CC1 (centres unmarked) [compound 048] | < 0.01 µM | 
COc1ccc(C(=O)C2CCC(N3CC=C(c4c(C)cc(-c5cnc6[nH]cc(-c7ccc(C(=O)N(C)C)cc7)c6n5)cc4C)CC3)C2)cc1N1CCC(=O)NC1=O (centres unmarked) [compound 044] | < 0.01 µM | 
Cc1cc(N2CC(CN3CC=C(c4c(C)cc(-c5cnc6[nH]cc(-c7ccc(N8CCOCC8)nc7)c6c5)cc4C)CC3)C2)ccc1N1CCC(=O)NC1=O [compound 103] | < 0.01 µM | 
Cc1cc(-c2cnc3[nH]cc(-c4ccc(C(=O)N5CC6(COC6)C5)cc4)c3n2)cc(C)c1C1=CCN(CC2CN(c3ccc(C(=O)NC4CCC(=O)NC4=O)cc3)C2)CC1 (centres unmarked) [compound 075] | < 0.01 µM | 
Cc1cc(-c2cnc3[nH]cc(-c4ccc(C(=O)N(C)C)cc4)c3c2)cc(C)c1C1=CCN(CC2CN(c3ccc(C(=O)NC4CCC(=O)NC4=O)cc3)C2)CC1 (centres unmarked) [compound 063] | < 0.01 µM | 
Cc1cc(N2CC(CN3CC=C(c4c(C)cc(-c5cnc6[nH]cc(-c7cnn(C8CCN(C(C)CC(=O)N(C)C)CC8)c7)c6c5)cc4C)CC3)C2)ccc1N1CCC(=O)NC1=O (centres unmarked) [compound 136] | < 0.01 µM | 

Compound | IC50 (HPK1 kinase [1]) | DC50 (HPK1 kinase [2])
CNS(=O)(=O)c1cc(C)cc(-c2cnc(N)c(Oc3cnn(C4CCN(CC5CN(c6ccc(C(=O)NC7CCC(=O)NC7=O)cc6)C5)CC4)c3)n2)c1 (centres unmarked) [compound 090] | < 0.01 µM | 
COc1ccc(N2CCC(C)(CN3CC=C(c4c(C)cc(-c5cnc6[nH]cc(-c7ccc(C(=O)N(C)C)cc7)c6n5)cc4C)CC3)C2)cc1N1CCC(=O)NC1=O (centres unmarked) [compound 035] | < 0.01 µM | 
Cc1cc(-c2cnc3[nH]cc(-c4ccc(C(=O)N(C)C)cc4)c3n2)cc(C)c1C1=CCN(CC2CN(c3ccc(C(=O)N[C@H]4CCC(=O)NC4=O)c(F)c3)C2)CC1 [compound 071] | < 0.01 µM | 
Cc1cc(-c2cnc3[nH]cc(-c4ccc(C(=O)N(C)C)cc4)c3n2)cc(C)c1C1=CCN(CC2CN(c3ccc(NC4CCC(=O)NC4=O)cn3)C2)CC1 (centres unmarked) [compound 022] | < 0.01 µM | 
Cc1cc(-c2cnc3[nH]cc(-c4ccc(C(=O)N(C)C)cc4)c3n2)cc(C)c1C1=CCN(CC2CN(c3cc(F)c(C4CCC(=O)NC4=O)c(F)c3)C2)CC1 (centres unmarked) [compound 002] | < 0.01 µM | 
COc1ccc(C(=O)N2CCC(CN3CC=C(c4c(C)cc(-c5cnc6scc(-c7ccc(C(=O)N(C)C)cc7)c6n5)cc4C)CC3)C2)cc1N1CCC(=O)NC1=O (centres unmarked) [compound 082] | < 0.01 µM | 
Cc1cc(-c2cnc3[nH]cc(-c4ccc5c(c4)C(C)(C)OC5=O)c3n2)cc(C)c1C1=CCN(C2CN(c3ccc(C4CCC(=O)NC4=O)cc3)C2)CC1 (centres unmarked) [compound 066] | < 0.01 µM | 
COc1ccc(C(=O)N2CC(CN3CC=C(c4ncc(-c5cnc6[nH]cc(-c7ccc(C(=O)N(C)C)cc7)c6n5)cc4CN(C)C)CC3)C2)cc1N1CCC(=O)NC1=O [compound 053] | < 0.01 µM | 
CCOc1cc(-c2cnc3[nH]cc(-c4ccc(C(=O)N(C)C)cc4)c3c2)ccc1C1=CCN(CC2CN(c3ccc(N4CCC(=O)NC4=O)c(C)c3)C2)CC1 [compound 137] | < 0.01 µM | 
Cc1cc(-c2cnc3[nH]cc(-c4ccc(C(=O)N(C)C)cc4)c3n2)cc(C)c1C1=CCN(C(=O)CCc2cc(F)c(N3CCC(=O)NC3=O)c(F)c2)CC1 [compound 047] | < 0.01 µM | 
Cc1cc(-c2cnc3[nH]cc(-c4ccc(C(=O)N(C)C)cc4)c3n2)cc(C)c1C1=CCN(CC2CN(c3cccc(C4CCC(=O)NC4=O)c3)C2)CC1 (centres unmarked) [compound 025] | < 0.01 µM | 
Cc1cc(N2CC(CN3CC=C(c4c(C)cc(-c5cnc(N)c(Oc6cnn(C7CCN(C)CC7)c6)n5)cc4C)CC3)C2)ccc1N1CCC(=O)NC1=O [compound 092] | < 0.01 µM | 
Cc1cc(-c2c[nH]c3ncc(-c4cc(C)c(C5=CCN(CC6CN(c7ccc(C(=O)NC8CCC(=O)NC8=O)cc7)C6)CC5)c(C)c4)nc23)ccc1C(=O)N1CC2(COC2)C1 (centres unmarked) [compound 050] | < 0.01 µM | 
Cc1cc(-c2cnc(N)c(Oc3cnn(C4CCN(C)CC4)c3)n2)cc(C)c1C1=CCN(CC2CN(c3ccc(C(=O)NC4CCC(=O)NC4=O)cc3)C2)CC1 (centres unmarked) [compound 095] | < 0.01 µM | 
CN(C)C(=O)c1ccc(-c2c[nH]c3ncc(-c4cnc(C5=CCN(CC6CN(c7ccc(C(=O)NC8CCC(=O)NC8=O)cn7)C6)CC5)c(F)c4)nc23)cc1 (centres unmarked) [compound 054] | < 0.01 µM | 
Cc1cc(N2CC3CC(N4CC=C(c5c(C)cc(-c6cnc7[nH]cc(-c8ccc(C(=O)N(C)C)cc8)c7c6)cc5C)CC4)CC3C2)ccc1N1CCC(=O)NC1=O (centres unmarked) [compound 115] | < 0.01 µM | 
Cc1cc(-c2cnc3[nH]cc(-c4cnc5[nH]ccc5c4)c3n2)cc(C)c1C1=CCN(C2CN(c3ccc(C(=O)NC4CCC(=O)NC4=O)cc3)C2)CC1 (centres unmarked) [compound 070] | < 0.01 µM | 
Cc1cc(N2CC3(CC(N4CC=C(c5c(C)cc(-c6cnc7[nH]cc(-c8ccc(C(=O)N(C)C)cc8)c7n6)cc5C)CC4)C3)C2)ccc1N1CCC(=O)NC1=O [compound 034] | < 0.01 µM | 
Cc1cc(-c2cnc3[nH]cc(-c4ccc(C(=O)N(C)C)cc4)c3n2)cc(C)c1C1=CCN(CC2CN(c3cccc(N4CCC(=O)NC4=O)c3C)C2)CC1 [compound 027] | < 0.01 µM | 
Cc1cc(-c2cnc3[nH]cc(-c4ccc(C(=O)N(C)C)cc4)c3n2)cc(C)c1C1=CCN(C2CN(c3cc(F)c(C4CCC(=O)NC4=O)c(F)c3)C2)CC1 (centres unmarked) [compound 007] | < 0.01 µM | 
Cc1cc(-c2cnc3[nH]cc(-c4ccc(C(=O)N(C)C)cc4)c3n2)cc(C)c1C1=CCN(CC2CN(c3ncc(C(=O)NC4CCC(=O)NC4=O)o3)C2)CC1 (centres unmarked) [compound 068] | < 0.01 µM | 
